Here are results for 17 compounds from patent US20220162257A1, “3ALPHA, 5BETA-NEUROACTIVE STEROIDS FOR THE TREATMENT OF EPILEPSY AND SEIZURE DISEASES” (USTAV ORGANICKE CHEMIE A BIOCHEMIE AV CR, V. V. I., priority 2019, published 2022).

The subject of one data set is adults and children. The following applies: clinical studies; cited from earlier work.
The test system of data set [1] is experimental seizures in animal models. Particulars: cited from earlier work; for effect in experimental seizures: seizures elicited by pentylenetetrazol, pilocarpine, NMDA and kainic acid.
For data set [2], the system named is PTZ-induced seizures in 12- and 25-day-old rats. The data set can be described thus: PTZ-induced generalized tonic-clonic seizures in immature rats. Type of data set: in vivo, rat. As to the method: Anticonvulsant effect of compounds was evaluated in two models of epileptic seizures in immature rats (PTZ model and 6 Hz model). PTZ convulsions were tested in 12- and 25-day-old rats, 6 Hz-induced seizures in 15- and 25-day-old rats. Young adult rats (P60) were also used in either test. Day of birth was taken as P0. Experiments evaluating precognitive effect were performed in adult male rats of the Wistar and Long Evans strain (3 months old, b.w. 300-400 g). All animals were obtained from a breeding facility of Institute of Physiology CAS (certificate No. 1396/2014-MZE-17214) Animals were held in standard conditions (21±1° C., humidity 50-60%, light regime 12/12) with unrestricted access to food and water. All manipulations with animals were performed according to the https://nc3rs.org.uk/arrive-guidelines and to Czech Animal Protection Law 246/1992 Sb. And international directives (EU Directive 2010/63/EU for animals' experiments).
Two age groups of immature male Wistar rats were used in either experiment. In PTZ model P12 corresponding by a maturation of the brain to early postnatal human babies, i.e. to the period where children epileptic encephalopathy mostly resistant to present pharmacotherapy start to appear. The other group—P25 animals corresponds with school-age children. Generalized tonic-clonic seizures were elicited by a subcutaneous injection of PTZ in a dose of 100 mg/kg. The 6 Hz model was tested in P15 (at this age eyes are open and it is not necessary to surgically distract lids). Biphasic pulses with […] were applied transcorneally for 3 s by a constant current stimulator of Ugo Basile company. PTZ induced generalized seizures represent a model of human generalized tonic-clonic seizures, seizures elicited by 6 Hz stimulation are generally taken as a model of temporal (psychomotor, complex partial) seizures. Differences in latencies and seizure severity were evaluated by ANOVA with a subsequent pairwise comparison by Holm-Sidak test. Incidence of seizures were evaluated by Fischer exact test. Critical p value was set at p=0.05.
Anticonvulsant effect was studied in 12- and 25-day-old male Wistar rats. Steroid derivatives were administered at doses of 1, 5 and 10 mg/kg i.p. 20 min before the administration of PTZ (100 mg/kg s.c.).

For data set [3], the system named is PTZ-induced seizures in zebrafish (Danio rerio). Nature of the data set: pentetrazol (PTZ)-induced seizures in zebrafish larvae. The following applies: 7 dpf larvae, PTZ 5 mmol/L; for epileptiform locomotor activity in the dark phase/light test, sedation: doses of 1, 3 and 5 mg/kg; for locomotor activity epileptiform induced by PTZ (spontaneous locomotor activity, maximum velocity, angle turns): doses of 1, 3 and 5 mg/kg (1, 3 and 5 μmol/L in the source). The format is in vivo. As for the experimental part: Adults wild-type (strain AB) zebrafish (Danio rerio) were maintained at 28-29° C. on a light cycle of 14 h light:10h dark (lights on at 7 am; lights off at 9 pm) at ZeClinics animal facility (Barcelona). All procedures involving animals and their care were conducted accordingly to CEA-OH/9421/2 authorization from Government of Catalonia. Embryos obtained by pairwise mating were raised in E3 media at the controlled temperature of 28.5° C. until 7 days post-fertilization (dpf) when the experiments were performed.
The anticonvulsant activity of the claimed compounds on the nervous system of zebrafish (Danio rerio). This test is the modern alternative to tests in adult animals as Danio rerio is very versatile organism that has a number of physiological similarities to mammals, including humans (Expert Opin. Drug Metab. Toxicol. 2009, 5, 393). Steroidal compounds were tested in three concentrations (1, 3 and 5 μmol.L^−1) on 7 days post-fertilization (dpf) wild-type larvae. As a negative control, sibling larvae were incubated with DMSO 1%, which allows us to detect behavioral alterations of PTZ treated larvae. Seizures were induced by treatment of pentetrazol (PTZ) at the dose 5 mmol.L^−1. Commercially available anti-convulsant drug Topiramate was used as comparator. Results were analyzed with GraphPad Prism software and statistical significance is assessed by the One-way ANOVA statistical analysis followed by Tukey's multiple comparisons test. The zebrafish larvae locomotion and response to visual stimuli are traced and analyzed by the EthoVision XT 12 software and the DanioVision device from Noldus Information Technologies, Wageningen, The Netherlands.
This closed system consists of a camera placed above a chamber with circulating water and a temperature sensor that is set at 28° C. Individualized larvae in a 48-wells plate are placed in the chamber, which can provide different stimuli (light/dark environment, tapping, sound) controlled by the software. Prior to each experiment, larvae were left for 10 minutes in dark for acclimation, then predetermined series of alternating dark and light environment are presented to the larvae. The final experimental protocol is divided in three main part: first a 15 minutes step with light on, then a series of 5 short flashes of light to induce epileptic seizures and finally a 25 minutes dark/light alternating environments phase. Different sets of information can be extrapolated from the different phases: while the first step is useful to detect changes in the total larvae locomotion, the second part allows us to analyze the larval response to a seizure-inducing visual stimulus and measure the seizure characteristics: the maximum velocity and the number of angles turns (specific of seizure erratic movement). The final phase is useful to detect anomalies in larval movement and deviations from the stereotyped behavior (natural locomotor behavior of zebrafish is active in dark and immobile in light). The anticonvulsant effect of compounds was studied at doses of […] for the compound shown in Example 1, Example 2 and Example 3.

Setting [4] is: both age groups (P12, P25), 5 and 10 mg/kg i.p.

Structures can show the parent of a compound that is named as a salt.

With `CC(=O)[C@H]1CC[C@H]2[C@@H]3CC[C@H]4C[C@](C)(O)CC[C@]4(C)[C@H]3CC[C@]12C` [Ganaxolone], in the data set with adults and children, the tolerability result is reported as “good tolerability in adults as well as children”. In addition, in data set [1] (rodents), the generation of seizures entry is “able to prevent generation of seizures in rodents”.
With `C[C@@]12CCC[C@H]1[C@@H]1CC[C@@H]3C[C@H](OC(=O)C4CCCC(=O)N4)CC[C@]3(C)[C@H]1CC2` (stereo partly shown), the melting point (as a rule, the temperature of the solid-liquid transition) is 109 to 111 °C.
With `C[C@@]12CCC[C@H]1[C@@H]1CC[C@@H]3C[C@H](OCCOC(=O)C4CCC(=O)N4)CC[C@]3(C)[C@H]1CC2` (stereo partly shown), the melting point was 110 to 111 °C.
Compound `C/C=C1/CC[C@H]2[C@@H]3CC[C@@H]4C[C@H](OC(=O)C5CCC(=O)N5)CC[C@]4(C)[C@H]3CC[C@]12C` (stereo partly shown) returned a melting point of 155 to 157 °C.
Compound `C[C@H]1CC[C@H]2[C@@H]3CC[C@@H]4C[C@H](OC(=O)C5CCC(=O)N5)CC[C@]4(C)[C@H]3CC[C@]12C` (stereo partly shown) gave a melting point of 157 to 158 °C.
`C[C@]12CC[C@@H](OC(=O)C3CCC(=O)N3)C[C@H]1CC[C@@H]1[C@@H]2CC[C@]2(C)C(=O)CC[C@@H]12` (stereo partly shown): the melting point fell in the range of 114 to 116 °C.
In turn, `C[C@]12CC[C@@H](OC(=O)C3CCCC(=O)N3)C[C@H]1CC[C@@H]1[C@@H]2CC[C@]2(C)[C@@H](C#N)CC[C@@H]12` (stereo partly shown) yielded a melting point of 69 to 71 °C.
For `CC(=O)[C@H]1CC[C@H]2[C@@H]3CCC4=C[C@@H](OC(=O)[C@@H]5CCCN5)CC[C@]4(C)[C@H]3CC[C@]12C` [PI-33, 3β-L-proline-progesterone-HCl, reference compound], in data set [2] (1 and 10 mg/kg doses), the “incidence of generalized tonic-clonic seizures” value is reported as “did not change incidence of generalized tonic-clonic seizures”.
As for `CC(=O)NCC(=O)O[C@@H]1CC[C@@]2(C)[C@H](CC[C@@H]3[C@@H]2CC[C@]2(C)[C@@H](C(C)=O)CC[C@@H]32)C1`, the melting point lay in the range of 111 to 113 °C.
As for `CC(=O)[C@H]1CC[C@H]2[C@@H]3CC[C@@H]4C[C@H](OC(=O)C5CCC(=O)N5)CC[C@]4(C)[C@H]3[C@H](O)C[C@]12C` (stereo partly shown), the melting point was 183 to 185 °C.
Consider `CC(=O)[C@H]1CC[C@H]2[C@@H]3CC[C@H]4C[C@H](O)CC[C@]4(C)[C@H]3CC[C@]12C` [ALLO, 20-oxo-5α-pregnan-3α-ol], for which the “frequency of seizures, mortality and cellular death” value in data set [1] (animal models of epilepsy) is “deceases frequency of seizures, mortality and cellular death”. Further, the “effect in experimental seizures” value in data set [1] was “significant effect”.
Consider `CC(=O)[C@H]1CC[C@H]2[C@@H]3CCC4=CC(=O)CC[C@]4(C)[C@H]3CC[C@]12C` [PROG, pregn-4-en-3,20-dione], for which the “effect in experimental seizures” value in data set [1] was “significant effect”.
As to `C[C@@]12CCC[C@H]1[C@@H]1CC[C@@H]3C[C@H](OC(=O)C4CCC(=O)N4)CC[C@]3(C)[C@H]1CC2` (stereo partly shown), the melting point was 136 to 137 °C.
The compound `C[C@@]12CCC[C@H]1[C@@H]1CC[C@@H]3C[C@H](OCCOC(=O)C4CCCC(=O)N4)CC[C@]3(C)[C@H]1CC2` (stereo partly shown) yielded a melting point of 117 to 119 °C.
Turning to `CC(=O)[C@H]1CC[C@H]2[C@@H]3CC[C@H]4C[C@@H](OC(=O)[C@@H]5CCC(=O)N5)CC[C@]4(C)[C@H]3CC[C@]12C` [Allopregnanolone (S)-5-oxopyrrolidin-2-carboxylate, reference compound], the “action against generalized tonic-clonic seizures” value in data set [2] (PTZ 100 mg/kg s.c., 12- and 25-day-old rats) is “only a moderate action”.
With `CC(=O)[C@H]1CC[C@H]2[C@@H]3CC[C@@H]4C[C@H](OC(=O)C5CCCC(=O)N5)CC[C@]4(C)[C@H]3CC[C@]12C` (stereo partly drawn) [Example 2, (3R,5R,8R,9S,10S,13S,14S,17S)-17-Acetyl-10,13-dimethylhexadecahydro-1H-cyclopenta[a]phenantren-3-yl 6-oxopiperidine-2-carboxylate], in data set [2] (setting [4]), the “incidence of GTCS” value is “suppressed significantly” and the seizure severity entry is reported as “suppressed significantly”. Further, in data set [3], the “epileptiform locomotor activity in the dark phase/light test, sedation” value is “decreased epileptiform locomotor activity in the dark phase/light test without causing sedation” and the “locomotor activity epileptiform induced by PTZ (spontaneous locomotor activity, maximum velocity, angle turns)” value was “significantly reduced the locomotor activity epileptiform induced by PTZ”.
With `C[C@]12CC[C@@H](OC(=O)C3CCC(=O)N3)C[C@H]1CC[C@@H]1[C@@H]2CC[C@]2(C)[C@@H](C#N)CC[C@@H]12` (stereo partly drawn) [Example 3, (3R,5R,8R,9S,10S,13S,14S,17S)-17-Cyano-10,13-dimethylhexadecahydro-1H-cyclopenta[a]phenanthren-3-yl 5-oxopyrrolidine-2-carboxylate], the “incidence of GTCS” value in data set [2] (P12 rats, 1, 5, 10 mg/kg i.p.) is “significantly affected only by the 5-mg/kg dose”; in data set [2] (P25 rats, 5 and 10 mg/kg i.p.), “suppressed incidence of GTCS”. Further, the “epileptiform locomotor activity in the dark phase/light test, sedation” value in data set [3] is “decreased epileptiform locomotor activity in the dark phase/light test without causing sedation”. The “locomotor activity epileptiform induced by PTZ (spontaneous locomotor activity, maximum velocity, angle turns)” value in data set [3] is on record as “significantly reduced the locomotor activity epileptiform induced by PTZ”.
